# Measured values published in US20230263770A1, “THERAPY OF POST-OPERATIVE NAUSEA AND VOMITING” (ACACIA PHARMA LTD, priority 2020, published 2023).
# “Also recorded” adds a separate entry of the source.
# Tests used:
# [1] = compared to the (R+)-enantiomer; cited from earlier work
# [2] = system: bariatric surgery patients; test: Study 1: complete response in bariatric surgery patients (prophylaxis and rescue treatment); format: in vivo, human
# Method: (§1) The present invention is based on the results of a Phase III study of amisulpride as prophylaxis against PONV in high-risk patients, conducted by the applicant. The Phase III study results include data from two randomized, double-blind, placebo-controlled, multi-centre Phase III trials of amisulpride, either as a prophylaxis, or rescue treatment for PONV.
# (§2) Amisulpride at a dose of 5 mg (prophylaxis) or 10 mg (rescue treatment) or matching placebo was given once by slow IV administration, over about 2 minutes.
# (§3) The primary efficacy variable was the absence or presence of PONV during the 24-hour post-operative period, where PONV was defined as the occurrence of one or more emetic episodes (vomiting and/or retching) or the receipt of one or more doses of rescue anti-emetic medication in the 24 hours after wound closure (prophylaxis study) or dosing (treatment study). Absence of PONV by this definition was termed “Complete Response” (CR). A number of secondary variables were evaluated including the occurrence of emesis (vomiting and/or retching).
# [3] = system: patients undergoing bariatric surgery; test: Study 1: treatment-emergent adverse events in patients undergoing bariatric surgery; format: in vivo, human; conditions: 5 mg prophylaxis or 10 mg rescue treatment, n = 53
# Method: as §1, §2
# [4] = system: patients who had not received prior prophylaxis; test: Clinical trial, treatment of PONV in patients without prior prophylaxis; format: in vivo, human; conditions: doses of 5 mg and 10 mg; no difference between the doses
# Method: In another clinical trial conducted by the applicant, amisulpride at doses of 5 mg and 10 mg were compared with placebo for the treatment of PONV, in patients who had not received prior prophylaxis.
# [5] = system: adult surgical patients at moderate-to-high risk of suffering PONV; test: Phase II dose-ranging trial, IV amisulpride as PONV prophylaxis; format: in vivo, human; conditions: for incidence of PONV: prophylaxis
# Method: In a multi-centre, double-blind, randomised, dose-ranging Phase II trial (conducted by the applicant), amisulpride was given intravenously to adult surgical patients at moderate-to-high risk of suffering PONV (prophylaxis), at doses of 1 mg, 5 mg and 20 mg, with a fourth group receiving placebo.
# [6] = system: patients having a high BMI (≥30); test: Study 1: prophylaxis of PONV in patients with a high BMI (complete response and secondary endpoints); format: in vivo, human; conditions: for CR (PONV) 0-2 hours / CR (PONV) 0-24 hours / CR (emesis) / CR (nausea) / CR (severe nausea): prophylactic therapy, 5 mg
# Method: (§4) A randomised, double-blind, placebo-controlled study of amisulpride for IV injection as treatment against post-operative nausea and vomiting in patients having a high BMI (≥30) was conducted. The primary aim of the study was to compare the efficacy of 5 mg and 10 mg amisulpride to placebo as treatment or prevention of PONV, in patients with a high BMI.
# (§5) The study was performed in adult patients (≥18 years) having a BMI ≥30 who were undergoing elective ambulatory (day-case) or in-patient surgery under general inhalational anaesthesia for an expected duration of at least one hour from induction of anaesthesia to extubation.
# as §2, §3
# (§6) A comparison of the incidence of CR in the 0-2 and 0-24 hour periods after surgery between the amisulpride group and the placebo group using Pearson's X2 test with Yates's continuity correction at a one-sided significance level of 2.5%. The primary efficacy analysis population was the modified intent-to-treat (mITT) population.
# Secondary efficacy variables assessed by incidence (e.g., emesis) were compared between the groups using Pearson's X2 test.
# [7] = system: patients having a high BMI (≥30); test: Study 1: rescue treatment of PONV in patients with a high BMI; format: in vivo, human; conditions: for CR (PONV), rescue treatment: 10 mg
# Method: as §4, §5, §2, §3, §6
# [8] = system: adult surgical patients at high risk of suffering PONV; test: Phase III trial, amisulpride in combination with a standard anti-emetic, PONV prophylaxis; format: in vivo, human; conditions: 5 mg in combination with a standard anti-emetic, 1147 evaluable patients; vs 53% placebo combination, p<0.001
# [9] = system: adult surgical patients at moderate-to-high risk of suffering PONV; test: Two Phase III placebo-controlled trials, PONV prophylaxis; format: in vivo, human; conditions: 5 mg, 626 evaluable patients, vs 59% placebo, p<0.01
# patients with BMI ≥35 = test: Study 1: treatment-emergent adverse events, prophylaxis in patients with BMI ≥35; format: in vivo, human
# Method: as §4, §5, §2
# [10] = system: patients having a high BMI (≥30); test: Study 1: prophylaxis of PONV in patients with a high BMI (complete response and secondary endpoints); format: in vivo, human; conditions: IV 5 mg + another antiemetic
# [11] = prophylaxis, IV 5 mg + another antiemetic, BMI ≥35, mITT, P 0.011
# [12] = 5 mg prophylaxis, BMI ≥35, n = 149
structure (smiles),measurement,setting,value
"CCN1CCCC1CNC(=O)c1cc(S(=O)(=O)CC)c(N)cc1OC (single isomer, unassigned) [(S−)-enantiomer, (S−)-amisulpride]",share of the therapeutic activity of amisulpride,[1],almost all of the therapeutic activity
"CCN1CCCC1CNC(=O)c1cc(S(=O)(=O)CC)c(N)cc1OC (racemic) [Amisulpride, amisulpride]",complete response rate (after 24 hours) compared to placebo,"[2]; bariatric surgery patients, amisulpride prophylaxis or rescue treatment",higher
same,complete response rate at 24 hours,"[2]; bariatric surgery, amisulpride prophylaxis (5 mg), vs 7.3% placebo, P=0.16",18.2%
same,complete response rate at 24 hours,"[2]; bariatric surgery, amisulpride rescue treatment (10 mg), vs 9.1% placebo, P=0.17",25.0%
same,"complete response at 24 hours, patients/total","[2]; combined prophylaxis and rescue treatment bariatric subgroup, placebo 5/63",11/53
same,complete response rate at 24 hours,"[2]; combined prophylaxis and rescue treatment bariatric subgroup, placebo 7.9%",20.8%
same,effectiveness for prophylaxis and rescue treatment of PONV in bariatric surgery patients vs other surgery types,"[2]; human, in vivo",as effective
same,Number of patients with any adverse event,[3],30 n
same,Patients with any adverse event,[3],(57) %
same,treating PONV compared to placebo,[4],significantly better than placebo
same,incidence of PONV,"[5]; 1 mg intravenously, p<0.05 vs placebo (69%)",48%
same,incidence of PONV,"[5]; 5 mg intravenously, p<0.01 vs placebo (69%)",40%
same,incidence of PONV compared to placebo,"[5]; all amisulpride groups (1 mg, 5 mg and 20 mg)",lower
same,"CR (0-24 h), patients with CR/total","[6]; 5 mg prophylaxis, BMI ≥35, 42/129 for placebo",71/149
same,secondary endpoints compared to placebo (FIGS. 1 and 2),"[6]; 5 mg prophylaxis, BMI ≥35, all secondary endpoints with the exception of emesis",statistically significantly superior to placebo
same,preventing PONV at 24 hours compared to placebo,"[6]; 5 mg prophylaxis, overall study population and particularly BMI ≥35 subgroup",more effective than placebo
same,"absolute risk reduction, amisulpride versus placebo","[6]; patients with BMI ≥35 (printed 235), 0-24 h",15.10
same,"absolute risk reduction, amisulpride versus placebo","[6]; patients with a BMI <35, 0-24 h",10.50
same,relative risk reduction (RRR) of the incidence of PONV,"[6]; patients with a high BMI (printed 230), compared to RRR of the overall risk of PONV",much higher than expected
same,CR (PONV) 0-2 hours,"[6]; BMI ≥30, 251 patients",53.0%
same,CR (PONV) 0-24 hours,"[6]; BMI ≥30, 251 patients",53.0%
same,CR (emesis),"[6]; BMI ≥30, 251 patients",12.6% (251 patients)
same,CR (nausea),"[6]; BMI ≥30, 251 patients",55.0% (251 patients)
same,CR (severe nausea),"[6]; BMI ≥30, 251 patients",41.8% (251 patients)
same,CR (emesis),"[6]; BMI ≥35, 149 patients",14.8% (149 patients)
same,CR (nausea),"[6]; BMI ≥35, 149 patients",58.4% (149 patients)
same,CR (severe nausea),"[6]; BMI ≥35, 149 patients",45.0% (149 patients)
same,CR (PONV) 0-2 hours,"[6]; BMI ≥35, 149 patients, p = 0.002",73.8% (p = 0.002)
same,CR (PONV) 0-24 hours,"[6]; BMI ≥35, 149 patients, p = 0.01",47.7% (p = 0.01)
same,CR (0-24 h),[6]; [11],(47.7%)
same,"CR (0-24 h), patients with CR/total",[6]; [11],71/149
same,preventing PONV compared to placebo,"[6]; prophylaxis, patients with a high BMI",more effective than placebo
same,safety and efficacy for prevention or treatment of PONV (overall conclusion),"[6]; single IV dose, patients with a high BMI and bariatric surgery population, post-hoc analysis",safe and effective; also recorded: safe and efficacious
same,"CR (PONV), rescue treatment","[7]; BMI ≥30, 251 patients",46.6% (251 patients)
same,"CR (PONV), rescue treatment","[7]; BMI ≥35, 149 patients",51.7% (149 patients)
same,effectiveness as rescue treatment for PONV,"[7]; dose of 10 mg, prior prophylaxis drug given, high (≥30) BMI and/or bariatric surgery patients",particularly effective
same,"CR rate, rescue treatment compared to placebo",[7]; patients with a high BMI,higher
same,incidence of PONV,[8],42%
same,incidence of PONV,[9],48%
same,Number of patients with any adverse event,patients with BMI ≥35; [12],79 n
same,Patients with any adverse event,patients with BMI ≥35; [12],(53) %
same,"incidence of any treatment-emergent adverse events (TEAE) or serious adverse events (SAE), amisulpride vs placebo",patients with BMI ≥35; high BMI and bariatric subgroups,No material difference
same,CR (0-24 h),"[10]; BMI <35, mITT, P 0.002",(61.2%)
same,"CR (0-24 h), patients with CR/total","[10]; BMI <35, mITT, P 0.002",259/423
same,CR (0-24 h),"[10]; all patients, mITT, P <0.001",(57.7%)
same,"CR (0-24 h), patients with CR/total","[10]; all patients, mITT, P <0.001",330/572
